# Assays:
# human hepatocytes = test: Metabolites in hepatocytes in vitro; type: in vitro ADME
# clinical [1] = type: in vivo, human; settings: human, in vivo; for concentration at 1 h / concentration at 4 h: both sexes
# Method: • 1. […] Treatment is administered as one sachet daily for the initial 3 weeks and then increased if tolerated to one sachet twice daily. […] Sampling times are randomly assigned to occur at either 1 or 4 hours post-dose at the 12 week visit and the other time at the 24 week visit. • Treatment duration: 24 weeks • 2.
# (§1) • Protocol AMX3500: sparse sampling in 87 subjects with ALS. Approximately 2 samples are collected for each subject, 1 or 4 hours post dose following 12 and 24 weeks of treatment. • Protocol A35-002: rich sampling in 14 healthy adults. Approximately 21 samples are collected over 24 hours for each subject on two occasions, once following a high fat meal and the other under fasting conditions.
# Subjects were advised to take the drug before a meal. […] Referred to as protocol 3500.
# A study was carried out to examine plasma concentration data in various subgroups for the protocol AMX3500 Phase 2 study. This example summarizes plasma concentrations of TUDCA and 2 metabolites, also related acids, UDCA, the de-conjugated TUDCA metabolite, and GUDCA, the glycine conjugate of UDCA.
# For each of the 2 treatment arms (treatment and placebo), subjects were further divided into 2 sample sequence groups for schedule of pharmacokinetic measurements: • 1. 1 hour post-dose for the Week 12 visit and 4 hours post-dose for the Week 24 visit • 2. 4 hours post-dose for the Week 12 visit and 1 hour post-dose for the Week 24 visit
# Twenty-four distinct medication descriptions were identified as containing antibiotics. Dates of antibiotic use were compared to dates of visits and if the antibiotic use date range contained the visit date, then that visit was flagged for that subject's data for antibiotic use. […] These antibiotics could hypothetically be in a subject's body still if this event occurred. However, it was observed that only a small number of subjects took antibiotics near to visit dates but not overlapping visit dates. In other cases, subjects were taking antibiotics on the date of one visit but not the others. Some subjects are therefore in both categories of antibiotic use and nonuse, though no individual visits for a subject are counted in both categories at the same time.
# Subjects whose race were recorded as “Black” or “African American” were evaluated according to the standard Glomerular Filtration Rate (eGFR) rating for that race. The other standard eGFR rating used, sometimes referred to as a standard for people who are White, was applied to subjects of all other races. These rates were analyzed as continuous in mL/min/1.73 m2 units and as the following categories: • 1. Less than 90 mL/min/1.73 m^2 • 2. Equal to or greater than 90 mL/min/1.73 m^2
# Age was converted from a continuous variable to 2 categories: • 1. As old or older than 65 years old • 2. Younger than 65 years old
# All boxplots boxes are bounded at the 25th and 75th percentile, with whiskers at 10th and 90th percentiles, outliers beyond that as points, the black line as median, and red line as mean.
# Plasma protein = Plasma protein binding in vitro; type: in vitro ADME; settings: co-administered in vitro
# [2] = Plasma protein binding in vitro; type: in vitro ADME; settings: plasma, co-administered in vitro
# clinical [3] = type: in vivo, human; settings: human, in vivo
# Method: as §1
# A total of 14 healthy subjects were enrolled in order to have no fewer than 12 subjects complete. A predefined mix of gender was selected.
# Each study period followed the same study design (FIG. 1). Subjects were screened for inclusion in the study up to 28 days before dosing. Subjects were admitted to the clinical unit during Study Day −2 for Period 1 and Day −1 for Period 2 and were dosed in the morning of Day 1. On the night prior to Period 1 the subjects in the fasted/fed or fed/fasted sequence were fasted for a minimum of 10 h prior to dosing.
# The solution was stirred until the powder was mostly dissolved.
# Any departures from the intended regimen were recorded in the eCRFs. All dose administrations were performed in the study center under the supervision of appropriately trained staff.
# Subjects were provided with a light snack and were then fasted from all food and drink (except water) until the following morning, when they were provided with a high-fat breakfast. The breakfast was consumed over a maximum period of 25 min, and dosing occurred 30 min after the start of breakfast. Subjects were encouraged to eat their meal evenly over the 25 min period. For this trial the subject was deemed compliant if they consumed >80% of the high-fat standard breakfast.
# The subjects in the 24-h baseline and in the fasted condition Period remained fasted up to 4 h post-dose and were offered a standardized meal to be taken between 4.00 and 5.00 h post-dose. Subjects in the fed condition were fasted overnight and received a high-fat standard breakfast 30 minutes pre-dose and then remained fasted for 4.00 to 5.00 h post-dose when they received a standardized meal.
# Venous blood samples were withdrawn via an indwelling cannula or by venipuncture according to the time schedule presented in Table 5 Table, Table 6, and Table 7.
# Blood samples of approximately 4 mL were collected into 4 mL BD Vacutainer Plastic K2EDTA Tubes with Lavender Hemogard Closure, and was gently inverted approximately 8 times. The tubes were then immediately stored on ice and processed within 60 min of collection by centrifugation at 1500 g for 10 min at 2 to 8° C. The resultant plasma was separated equally into 2 aliquots and transferred to 2 mL appropriately labelled primary and backup polypropylene cryovials.
# Actual elapsed time from dosing was to be used for the final plasma PK parameter calculations after database lock.
# [4] = Steady-state plasma concentration
structure (smiles),measurement,setting,value
"C[C@H](CCC(=O)NCCS(=O)(=O)O)[C@H]1CC[C@H]2[C@@H]3[C@@H](O)C[C@@H]4C[C@H](O)CC[C@]4(C)[C@H]3CC[C@]12C [TURSO, taurursodiol]",metabolites detected in human hepatocytes versus rat and minipig hepatocytes,human hepatocytes,also detected in rat and minipig hepatocytes
same,concentration at 1 h,"clinical [1]; Plasma Concentration, Mean",503 ng/mL
same,concentration at 4 h,"clinical [1]; Plasma Concentration, Mean",636 ng/mL
same,concentration at 1 h,"clinical [1]; Plasma Concentration, Median",248 ng/mL
same,concentration at 4 h,"clinical [1]; Plasma Concentration, Median",446 ng/mL
same,concentration at 1 h,clinical [1]; [4],448 ng/mL
same,concentration at 4 h,clinical [1]; [4],566 ng/mL
same,"Plasma Concentration, Median",clinical [1]; both,20.0 ng/mL
same,"Plasma Concentration, Min",clinical [1]; both,20.0 ng/mL
same,steady state reached by,clinical [1]; both,≤ 12 Week
same,"Plasma Concentration, Min","clinical [1]; both, 1 h",20.0 ng/mL
same,"Plasma Concentration, Min","clinical [1]; both, 4 h",20.0 ng/mL
same,accumulation in plasma after once- or twice-daily dosing,clinical [1],little accumulation
same,effect of age on steady-state plasma concentration,clinical [1],no difference
same,effect of mild renal insufficiency on steady-state plasma concentration,clinical [1],no discernible difference
same,steady-state plasma concentrations versus endogenous levels,clinical [1],at least an order of magnitude higher than endogenous levels
same,Plasma protein binding,Plasma protein,~99%
same,fraction unbound,[2],0.02
same,AUC(0-inf),"clinical [3]; both sexes, AUC(0-inf)",3910 ng·h/mL
same,AUC(0-t),"clinical [3]; both sexes, AUC(0-last)",4360 ng·h/mL
same,Cmax,"clinical [3]; both sexes, Cmax",741 ng/mL
same,half-life,"clinical [3]; both sexes, T1/2",4.34 h
same,Tmax,"clinical [3]; both sexes, Tmax",4.5 h
same,Tmax,"clinical [3]; both sexes, Tmax Median",4.5 h
same,Vd/F,"clinical [3]; both sexes, Vz/F",1600 L
same,half-life,"clinical [3]; both sexes, elimination half-lives (range)",2.51 to 8.71 h
same,Cmax,"clinical [3]; both sexes, mean Cmax",871 ng/mL
same,Cmax,"clinical [3]; both sexes, po, Cmax",741 ng/mL
same,Tmax,"clinical [3]; both sexes, po, Tmax, Median",4.5 h
same,AUG(0-last),clinical [3]; both,4360 (79.4) ng.h/ml
same,Tmax,clinical [3]; both,10.00 h
same,"increase in exposure (AUC) with high-fat, high-calorie meal",clinical [3]; both,46%
same,time of maximum plasma concentrations (range),clinical [3]; both,1.50 to 10.00 h
same,"AUC(0-last), Adj Geo Mean","clinical [3]; both, po",4460 ng·h/mL
same,"Cmax, Adj Geo Mean","clinical [3]; both, po",755 ng/mL
same,median time to Cmax,clinical [3],4.5 h
